One experiment concerns the target Glutamate NMDA receptor. More on the design: species or system Rattus norvegicus.
Experiment [1] has as its target Sodium-dependent serotonin transporter (Rattus norvegicus, UniProt P31652). Kind of experiment: Inhibition of Serotonin transporter in cerebral cortical synaptic membrane of rats using [3H]paroxetine.
The target of experiment [2] is T1, 5-hydroxytryptamine receptor 2C (Rattus norvegicus) (UniProt P08909).
T1 sequence (whole entry): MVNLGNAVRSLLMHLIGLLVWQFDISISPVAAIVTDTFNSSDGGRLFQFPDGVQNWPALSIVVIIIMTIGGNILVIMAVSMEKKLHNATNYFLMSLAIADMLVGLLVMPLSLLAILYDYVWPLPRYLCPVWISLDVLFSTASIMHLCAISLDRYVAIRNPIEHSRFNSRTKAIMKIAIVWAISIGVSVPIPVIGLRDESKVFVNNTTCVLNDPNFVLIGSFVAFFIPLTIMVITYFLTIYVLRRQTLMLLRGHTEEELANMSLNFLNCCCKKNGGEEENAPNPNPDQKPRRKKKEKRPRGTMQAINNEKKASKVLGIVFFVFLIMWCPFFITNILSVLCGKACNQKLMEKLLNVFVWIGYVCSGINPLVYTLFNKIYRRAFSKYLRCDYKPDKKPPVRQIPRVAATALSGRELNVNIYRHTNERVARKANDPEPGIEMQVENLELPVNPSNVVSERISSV
Kind of experiment: Compound tested for relative response using 0.1 uM 5-HT as agonist against 5-hydroxytryptamine 2C receptor. In kind it is functional.

The target of experiment [3] is T2, Muscarinic acetylcholine receptor M1 (Rattus norvegicus) (UniProt P08482).
T2 sequence (whole entry): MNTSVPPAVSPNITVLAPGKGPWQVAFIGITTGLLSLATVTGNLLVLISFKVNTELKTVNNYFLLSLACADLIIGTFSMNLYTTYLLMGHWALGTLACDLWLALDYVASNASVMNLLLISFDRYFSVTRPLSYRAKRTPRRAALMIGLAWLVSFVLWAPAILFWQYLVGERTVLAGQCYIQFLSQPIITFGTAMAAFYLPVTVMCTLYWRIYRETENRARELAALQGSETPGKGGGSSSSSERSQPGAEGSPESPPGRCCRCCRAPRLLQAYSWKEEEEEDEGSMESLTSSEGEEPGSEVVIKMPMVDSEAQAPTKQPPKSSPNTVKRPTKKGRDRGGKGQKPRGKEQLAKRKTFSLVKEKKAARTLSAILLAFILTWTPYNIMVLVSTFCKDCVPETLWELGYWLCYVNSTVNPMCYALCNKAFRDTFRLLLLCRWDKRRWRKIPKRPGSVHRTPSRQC
Put plainly: Compound tested for relative response using 1 uM ACh as agonist against AChM1 receptor. Type of experiment: functional.

Experiment [4] deals with GABA-A receptor; anion channel (Rattus norvegicus) (UniProt O09028+P15431+P18506+P18508+P19969+P20236+P23574+P23576+P28471+P28473+P30191+P62813+P63079+P63138+Q91ZM7+Q9ES14). Put plainly: Compound tested for relative response using 30 uM GABA as agonist against Gamma-aminobutyric acid A receptor. Type of experiment: functional.
The target of experiment [5] is Glutamate receptor ionotropic, kainate (Rattus norvegicus) (UniProt P22756+Q01812+P42260+P42264+Q63273). Put plainly: Compound tested for relative response using 30 uM kainate as agonist against Ionotropic glutamate receptor kainate. In kind it is functional.
For experiment [6], the target named is Glutamate receptor ionotropic, AMPA (Rattus norvegicus) (UniProt P19491+P19492+P19493+P19490). Kind of experiment: Compound tested for relative response using 10 uM AMPA as agonist against Ionotropic glutamate receptor AMPA. Type of experiment: functional.
The target in experiment [7] is Glutamate receptor ionotropic, NMDA 1 (Rattus norvegicus) (UniProt P35439). Put plainly: Compound tested for relative response using 30 uM NMDA+10 uM glycine as agonist against N-methyl-D-aspartate glutamate receptor 1. In kind it is functional.

pIC50, pKi: −log10 of the molar value.

Sequence of Sodium-dependent serotonin transporter (P31652 whole entry): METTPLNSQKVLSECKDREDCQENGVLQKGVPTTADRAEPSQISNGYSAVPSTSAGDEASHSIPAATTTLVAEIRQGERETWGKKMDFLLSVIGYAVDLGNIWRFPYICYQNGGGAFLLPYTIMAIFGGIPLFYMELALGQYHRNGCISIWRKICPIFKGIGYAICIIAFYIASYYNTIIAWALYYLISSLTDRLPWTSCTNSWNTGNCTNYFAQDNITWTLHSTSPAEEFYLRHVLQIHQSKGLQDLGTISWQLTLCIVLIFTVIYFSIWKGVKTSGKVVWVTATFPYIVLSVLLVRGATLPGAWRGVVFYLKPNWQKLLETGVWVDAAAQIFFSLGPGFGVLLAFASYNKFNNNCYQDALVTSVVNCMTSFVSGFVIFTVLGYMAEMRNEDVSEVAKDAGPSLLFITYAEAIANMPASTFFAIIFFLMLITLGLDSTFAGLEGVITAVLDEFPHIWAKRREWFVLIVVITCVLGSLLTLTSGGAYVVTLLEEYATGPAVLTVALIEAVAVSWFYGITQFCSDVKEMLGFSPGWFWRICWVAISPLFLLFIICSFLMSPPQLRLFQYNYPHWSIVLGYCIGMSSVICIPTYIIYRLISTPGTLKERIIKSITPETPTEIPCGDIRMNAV
Description for Glutamate NMDA receptor: Inhibition of [3H]MK-801 binding to N-methyl-D-aspartate glutamate receptor of rat cerebral cortical synaptic membrane

For orientation: pIC50 means the IC50 on a negative log10 scale, so that one unit is a factor of ten. The low end stands for a high IC50, the high end for a low IC50. As usually defined, the pKi is the negative decadic logarithm of the Ki, by convention in mol/L. Low values mean a large Ki, high ones a small Ki. Consider `CCN(CC)C(=O)[C@@]1(c2ccccc2)C[C@H]1C(N)C#N` (stereo in doubt; 2e), for which the negative-log IC50 (pIC50) against Glutamate NMDA receptor was 4.02. In addition, in experiment [1], the pKi was < 4.00.
Regarding `C#CC(N)[C@@H]1C[C@@]1(C(=O)N(CC)CC)c1ccccc1` (stereo in doubt; 2d) [listing 1 of 2 here], the pIC50 on Glutamate NMDA receptor was 6.54. The compound also showed a pKi in experiment [1] of 6.72.
The corresponding values for `CCN(CC)C(=O)[C@@]1(c2ccccc2)C[C@H]1C(N)C(=O)OC` (some centres undefined) are < 4.00 and 4.60.
In the case of `CCN(CC)C(=O)[C@@]1(c2ccccc2)C[C@H]1C(N)C(N)=O` (some centres undefined), at Glutamate NMDA receptor, the pIC50 was 4.57. The pKi in experiment [1] is < 4.00.
For `C#CC(N)[C@@H]1C[C@@]1(C(=O)N(CC)CC)c1ccccc1` (stereo in doubt; 2d) [listing 2 of 2 here], the Relative response in experiment [2] stood at 100%; in experiment [3], 102%; in experiment [4], 99.6%; in experiment [5], 96.9%; in experiment [6] it was 100%; in experiment [7], 32.1%.
As for `CCN(CC)C(=O)[C@@]1(c2ccccc2)C[C@H]1C(N)C(=O)O` (some centres undefined), the pIC50 at Glutamate NMDA receptor is < 4.00. The negative-log Ki (pKi) in experiment [1] is < 4.00.
As for `CCN(CC)C(=O)[C@@]1(c2ccccc2)C[C@H]1C(N)C#N` (stereo in doubt; 3e), the pIC50 at Glutamate NMDA receptor is < 4.00.
Compound `C#CC(N)[C@@H]1C[C@@]1(C(=O)N(CC)CC)c1ccccc1` (stereo in doubt; 3d) showed a pIC50 against Glutamate NMDA receptor of 4.80. Further, the pKi in experiment [1] is 4.82.

(Values after ChEMBL document CHEMBL1131086, “Synthesis and biological activity of conformationally restricted analogues of milnacipran: (1S, 2R)-1-phenyl-2-[(R)-1-amino-2-propynyl]-N,N- diethylcyclopropanecarboxamide is a novel class of NMDA receptor channel blocker” (J Med Chem, 1998).)
